Reference: PubChem BioAssay AID1259333 (Broad Institute, 2017)
Activity calls are given as the source filed them. How the calls were made is not given here; tested in parental BL2 cells.

System: cytotoxicity, CellTiter-Glo ATP luminescence
Experiment: cell cytotoxicity, dose response, cytotoxicity control, CellTiter-Glo (AID 1259333)

**Q.** How did the AC50 turn out when `OC(c1cc(-c2cccc(Cl)c2)nc2ccccc12)C1CCCCN1` (centres undefined) was run?
**A.** The AC50 was 2.86 µM.

**Q.** How did the AC50 turn out when `N=C(N)c1ccc(OCCCCCOc2ccc(C(=N)N)cc2)cc1` was run?
**A.** Its AC50 is > 20 µM (inactive).

**Q.** Which AC50 does the source give for `NS(=O)(=O)c1cc2c(cc1C(F)(F)F)NC(Cc1ccccc1)NS2(=O)=O` (centres undefined) here?
**A.** Its AC50 is > 20 µM (inactive).

**Q.** With `CCN(CC)c1ccc(C(NC(=O)C(C)C)c2ccc3cccnc3c2O)cc1` (centres undefined) as the compound, how does the AC50 read?
**A.** Its AC50 is 9.15 µM.

**Q.** With `COc1ccc(/C=C/C(=O)Nc2ccccc2C(=O)O)cc1OC` as the compound, how does the AC50 read?
**A.** Its AC50 is > 20 µM (inactive).

**Q.** How did the AC50 turn out when `C[C@@H]1CN([C@@H](C)CO)C(=O)c2c(c3ccccc3n2C)-c2ccccc2CO[C@H]1CN(C)C(=O)Nc1cccc(C(F)(F)F)c1` was run?
**A.** Its AC50 is 1.4 µM.

**Q.** Which AC50 does the source give for `C[C@@H]1CCCCO[C@H](CN(C)Cc2ccc(C(F)(F)F)cc2)[C@@H](C)CN([C@@H](C)CO)C(=O)c2cc(NC(=O)Nc3cccc4ccccc34)ccc2O1` here?
**A.** Its AC50 is 10.7 µM.

**Q.** With `C[C@H](CO)N1C[C@H](C)[C@@H](CN(C)Cc2ccc(Oc3ccccc3)cc2)OCc2ccccc2-c2ccccc2C1=O` as the compound, how does the AC50 read?
**A.** The AC50 was > 20 µM (inactive).

**Q.** How did the AC50 turn out when `Clc1ccc(CSC(Cn2ccnc2)c2ccc(Cl)cc2Cl)cc1` (centres undefined) was run?
**A.** The AC50 was > 20 µM (inactive).

**Q.** Which AC50 does the source give for `c1ccc(-c2nc(-c3ccccn3)no2)cc1` here?
**A.** The AC50 was 11.5 µM.

**Q.** For `C[C@@H]1CCCCO[C@@H](CN(C)Cc2ccc(Cl)c(Cl)c2)[C@H](C)CN([C@H](C)CO)C(=O)c2cc(NS(=O)(=O)c3cccs3)ccc2O1`, which AC50 is on record?
**A.** The AC50 was 8.68 µM.

**Q.** `C1CCC(C(CC2CCCCN2)C2CCCCC2)CC1` (centres undefined) was tested. Which AC50 did it give?
**A.** Its AC50 is 2.37 µM.

**Q.** How did the AC50 turn out when `C[C@@H]1CN([C@H](C)CO)C(=O)c2c(c3ccccc3n2C)-c2ccccc2CO[C@@H]1CN(C)C(=O)c1cc(Cl)cc(Cl)c1` was run?
**A.** The AC50 was 9.93 µM.

**Q.** For `C[C@@H]1C[C@@H]([C@H](O)CC2CC(=O)NC(=O)C2)C(=O)[C@@H](C)C1`, which AC50 is on record?
**A.** The AC50 was > 20 µM (inactive).

**Q.** How did the AC50 turn out when `COc1c(O)cc2oc3cc(O)c(CC=C(C)C)c(O)c3c(=O)c2c1CC=C(C)C` was run?
**A.** The AC50 was 6.98 µM.

**Q.** How did the AC50 turn out when `COc1ccc2c3c(n(C)c2c1)[C@H](CO)N(C(=O)Nc1ccc(F)cc1)CC31CCN(C(=O)c2ccc3c(c2)OCO3)CC1` was run?
**A.** The AC50 was > 20 µM (inactive).

**Q.** With `COc1ccc(S(=O)(=O)Nc2ccc3c(c2)C(=O)N([C@@H](C)CO)C[C@@H](C)[C@@H](CN(C)Cc2ccc(C(F)(F)F)cc2)OCCCC[C@H](C)O3)cc1` as the compound, how does the AC50 read?
**A.** The AC50 was > 20 µM (inactive).

**Q.** `COC(=O)c1nn(-c2ccc(-c3ccccc3)cc2)cc1O` was tested. Which AC50 did it give?
**A.** Its AC50 is > 20 µM (inactive).

**Q.** With `CCS(=O)(=O)N1[C@H](CO)[C@@H](c2ccc(C#Cc3ccccc3F)cc2)[C@@H]1C#N` as the compound, how does the AC50 read?
**A.** Its AC50 is > 20 µM (inactive).

**Q.** For `CNc1c2cccc(C)c2nc2c(C(=O)NCCN(C)C)cccc12`, which AC50 is on record?
**A.** Its AC50 is 5.98 µM.

**Q.** How did the AC50 turn out when `COc1ccc2c3c(n(C)c2c1)[C@@H](CO)N(C(=O)Nc1ccc(F)cc1)CC31CN(Cc2ccccc2F)C1` was run?
**A.** Its AC50 is > 20 µM (inactive).

**Q.** How did the AC50 turn out when `COCC(C)n1c(C)cc(C(=O)COC(=O)c2cccn2C)c1C` (centres undefined) was run?
**A.** Its AC50 is > 7 µM (inactive).

**Q.** With `CCC(C)[C@H]1O[C@]2(CC[C@@H]1C)C[C@@H]1C[C@@H](C/C=C(\C)[C@@H](OC3C[C@H](OC)C(O[C@H]4C[C@H](OC)[C@@H](O)[C@H](C)O4)[C@H](C)O3)[C@@H](C)/C=C/C=C3\CO[C@@H]4[C@H](O)C(C)=C[C@@H](C(=O)O1)[C@]34O)O2` (some centres undefined) as the compound, how does the AC50 read?
**A.** Its AC50 is > 20 µM (inactive).

**Q.** Which AC50 does the source give for `NC(c1csc(NC(=O)Nc2cccc(Cl)c2)n1)c1ccccc1Cl` (centres undefined) here?
**A.** Its AC50 is > 20 µM (inactive).

**Q.** Which AC50 does the source give for `COc1ccc2c(c1)c1ncn(Cc3ccccn3)c(=O)c1n2C` here?
**A.** Its AC50 is > 20 µM (inactive).

**Q.** How did the AC50 turn out when `Cn1cnc([N+](=O)[O-])c1S(=O)(=O)Oc1cccc2ccccc12` was run?
**A.** Its AC50 is 1.91 µM.

**Q.** With `COc1cccc(C#Cc2ccc([C@H]3[C@@H](C#N)N(C(=O)c4ccccn4)[C@@H]3CO)cc2)c1` as the compound, how does the AC50 read?
**A.** Its AC50 is 9.74 µM.

**Q.** With `COc1cccc(NC(=O)N2CC(=O)N3[C@H](CO)[C@@H](c4ccc(C#CCC5CCCC5)cc4)[C@H]3C2)c1` as the compound, how does the AC50 read?
**A.** Its AC50 is 4.13 µM.

**Q.** With `O=S(=O)(c1cccc2cnccc12)N1CCNCC1` as the compound, how does the AC50 read?
**A.** Its AC50 is 7.09 µM.

**Q.** Which AC50 does the source give for `C[C@H]1CN([C@@H](C)CO)C(=O)c2ccccc2-c2ccccc2CO[C@H]1CN(C)Cc1ccc(Oc2ccccc2)cc1` here?
**A.** The AC50 was > 20 µM (inactive).

**Q.** For `CC(C)(C)OC(=O)CC(S(=O)(=O)c1ccccc1)S(=O)(=O)c1ccccc1`, which AC50 is on record?
**A.** The AC50 was 6.37 µM.

**Q.** With `Cc1ccc2c(=O)c3ccccc3n(CCCN)c2c1C` as the compound, how does the AC50 read?
**A.** Its AC50 is 2.79 µM.

**Q.** For `C=C1C(=O)C23C(O)C1CCC2C12CCCC(C)(COC(C)=O)C1C(O)C3(O)OC2` (centres undefined), which AC50 is on record?
**A.** Its AC50 is 5.52 µM.

**Q.** How did the AC50 turn out when `C[C@@H]1CN([C@H](C)CO)C(=O)c2c(c3ccccc3n2C)-c2ccccc2CO[C@H]1CN(C)C(=O)c1cc(Cl)cc(Cl)c1` was run?
**A.** Its AC50 is > 20 µM (inactive).

**Q.** For `CCCC(C)Sc1nc2c([nH]1)c(=S)n(C)c(=O)n2C` (centres undefined), which AC50 is on record?
**A.** Its AC50 is 8.95 µM.

**Q.** Which AC50 does the source give for `O=C(Nc1ccccn1)c1ccc(-c2ccccc2)cc1` here?
**A.** Its AC50 is > 20 µM (inactive).

**Q.** Which AC50 does the source give for `COc1cc2cc(C(=O)N3CC(COS(C)(=O)=O)c4ccc(O)cc43)[nH]c2c(OC)c1OC` (centres undefined) here?
**A.** The AC50 was 0.276 µM.

**Q.** For `O=C(Nc1cccc(N2C(=O)C=CC2=O)c1)c1cccs1`, which AC50 is on record?
**A.** The AC50 was 2.26 µM.

**Q.** `COc1ccccc1C(=O)Nc1ccc2c(c1)C(=O)N(C)[C@H]1CC[C@H](CC(=O)Nc3cccc(C(C)C)c3)O[C@@H]1CO2` was tested. Which AC50 did it give?
**A.** The AC50 was > 20 µM (inactive).
